According to patent US11851431B2, “Tricyclic Janus kinase 1 inhibitors, and compositions and methods thereof” (LYNK PHARMACEUTICALS CO. LTD., priority 2018, dated 2023):

What was measured:
[1] = biological target: T1, JAK1 (Homo sapiens, UniProt P23458); experiment: JAK biochemical microfluidic assay (Caliper EZ Reader), JAK1; conditions: 1 mM ATP; head prints (5 nM)
T1 construct: purchased Carna Biosciences
Method: (§1) JAK activity was determined in the reaction buffer 50 mM HEPES, 0.01% Brij35, 10 mM MgCl2, 2 mM DTT by a microfluidic assay. The phosphorylation of a FAM labeled peptide substrate was monitored in the Caliper EZ Reader II (Perkin Elmer). The assay condition for each batch of enzyme (Carna Biosciences) was optimized to obtain 10% conversion rate of peptide substrate.
(§2) The test compounds were dissolved in DMSO to a stock concentration of 10 mM. Three-fold serially diluted compounds with top concentration of 5 μM were pre-incubated with JAK1, JAK2 or TYK2 for 10 min at ambient temperature. The final DMSO concentration of assay mixture was 1%. […] The reaction was stopped by adding 50 mM EDTA.
(§3) The percent inhibition was calculated by the following formula. % Inhibition=(Conversionmax−Conversionsample)/(Conversionmax−Conversionmin)*100 Conversionmax means the conversion rate in the positive well without addition of compound • […] means the conversion rate in the well without addition of enzyme • Conversionsample means the conversion rate of test compounds
(§4) The dose-response (percent inhibition) curve was plotted and IC50 values were determined by GraphPad software.

[2] = biological target: T2, JAK2 (Homo sapiens, UniProt O60674); experiment: JAK biochemical microfluidic assay (Caliper EZ Reader), JAK2; conditions: 1 mM ATP; head prints (0.25 nM)
T2 construct: purchased Carna Biosciences
Method: as §1, §2, §3, §4

T1 sequence (P23458 whole entry): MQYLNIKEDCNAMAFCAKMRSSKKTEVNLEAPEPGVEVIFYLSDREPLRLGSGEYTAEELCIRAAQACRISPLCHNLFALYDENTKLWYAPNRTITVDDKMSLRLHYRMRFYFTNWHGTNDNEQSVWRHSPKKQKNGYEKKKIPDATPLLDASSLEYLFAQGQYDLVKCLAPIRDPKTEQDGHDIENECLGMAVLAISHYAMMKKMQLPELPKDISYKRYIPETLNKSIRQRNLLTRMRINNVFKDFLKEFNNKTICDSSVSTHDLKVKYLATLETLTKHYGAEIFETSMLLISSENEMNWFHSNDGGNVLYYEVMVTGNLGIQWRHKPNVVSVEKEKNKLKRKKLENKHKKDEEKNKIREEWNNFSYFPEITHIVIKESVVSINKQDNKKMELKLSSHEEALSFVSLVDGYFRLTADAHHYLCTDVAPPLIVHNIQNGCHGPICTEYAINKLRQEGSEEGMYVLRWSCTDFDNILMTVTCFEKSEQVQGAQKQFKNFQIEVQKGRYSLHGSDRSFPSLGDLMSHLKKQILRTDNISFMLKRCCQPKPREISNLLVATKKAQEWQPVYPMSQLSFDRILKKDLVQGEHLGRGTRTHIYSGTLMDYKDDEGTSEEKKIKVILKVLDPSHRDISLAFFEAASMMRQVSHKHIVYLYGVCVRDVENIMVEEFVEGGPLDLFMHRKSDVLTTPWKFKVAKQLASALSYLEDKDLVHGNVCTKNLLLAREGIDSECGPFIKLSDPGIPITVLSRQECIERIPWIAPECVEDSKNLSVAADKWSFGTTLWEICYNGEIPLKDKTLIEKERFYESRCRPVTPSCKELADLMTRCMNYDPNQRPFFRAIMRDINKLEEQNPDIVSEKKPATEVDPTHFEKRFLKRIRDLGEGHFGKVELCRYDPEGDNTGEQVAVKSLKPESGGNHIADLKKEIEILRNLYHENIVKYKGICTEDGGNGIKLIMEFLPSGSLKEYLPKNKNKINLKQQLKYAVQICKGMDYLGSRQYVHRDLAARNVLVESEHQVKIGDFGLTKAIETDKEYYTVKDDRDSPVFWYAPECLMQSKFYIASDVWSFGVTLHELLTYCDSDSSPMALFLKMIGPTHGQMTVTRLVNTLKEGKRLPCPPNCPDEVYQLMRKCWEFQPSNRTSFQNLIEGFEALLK
T2 sequence (O60674 whole entry): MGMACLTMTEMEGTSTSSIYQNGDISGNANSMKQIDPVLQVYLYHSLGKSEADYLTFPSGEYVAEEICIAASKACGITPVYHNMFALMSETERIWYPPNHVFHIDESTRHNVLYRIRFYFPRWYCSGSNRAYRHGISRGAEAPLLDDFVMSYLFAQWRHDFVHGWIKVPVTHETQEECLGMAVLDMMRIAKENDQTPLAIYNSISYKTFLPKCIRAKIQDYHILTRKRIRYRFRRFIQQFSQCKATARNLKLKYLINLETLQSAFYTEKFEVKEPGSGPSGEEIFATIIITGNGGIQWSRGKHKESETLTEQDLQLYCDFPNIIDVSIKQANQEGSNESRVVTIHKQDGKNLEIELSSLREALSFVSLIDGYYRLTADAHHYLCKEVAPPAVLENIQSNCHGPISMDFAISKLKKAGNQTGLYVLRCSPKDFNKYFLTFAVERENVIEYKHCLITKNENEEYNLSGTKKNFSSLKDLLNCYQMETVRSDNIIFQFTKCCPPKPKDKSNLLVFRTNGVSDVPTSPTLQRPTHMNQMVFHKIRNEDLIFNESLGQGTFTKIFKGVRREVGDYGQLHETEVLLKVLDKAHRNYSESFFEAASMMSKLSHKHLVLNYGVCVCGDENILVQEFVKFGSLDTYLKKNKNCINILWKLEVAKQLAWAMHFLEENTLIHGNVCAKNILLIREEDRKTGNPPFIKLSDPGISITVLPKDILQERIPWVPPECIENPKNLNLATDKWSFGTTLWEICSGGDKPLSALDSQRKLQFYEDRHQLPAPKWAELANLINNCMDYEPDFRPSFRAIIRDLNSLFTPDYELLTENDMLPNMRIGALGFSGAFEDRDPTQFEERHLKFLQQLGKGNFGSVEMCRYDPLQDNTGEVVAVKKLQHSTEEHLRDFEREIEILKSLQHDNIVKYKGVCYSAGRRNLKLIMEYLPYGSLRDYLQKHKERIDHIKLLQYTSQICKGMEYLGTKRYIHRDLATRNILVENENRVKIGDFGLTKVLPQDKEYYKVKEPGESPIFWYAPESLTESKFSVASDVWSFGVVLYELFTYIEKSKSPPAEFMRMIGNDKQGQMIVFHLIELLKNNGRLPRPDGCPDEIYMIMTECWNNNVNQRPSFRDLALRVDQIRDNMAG

SMILES	IC50 [1] [nM]	IC50 [2] [nM]
N#CCC(=O)NC12CC(n3cnc4cnc5[nH]ccc5c43)(C1)C2 [Example 11, 2-Cyano-N-(3-(imidazo[4,5-d]pyrrolo[2,3-b]pyridin-1(6H)-yl)bicyclo[1.1.1]pentan-1-yl)acetamide]	11.7	166
O=C(NC12CC(n3cnc4cnc5[nH]ccc5c43)(C1)C2)C1CC1 [Example 12, N-(3-(Imidazo[4,5-d]pyrrolo[2,3-b]pyridin-1(6H)-yl)bicyclo[1.1.1]pentan-1-yl)cyclopropanecarboxamide]	35.5	–
O=C(NC12CC(n3cnc4cnc5[nH]ccc5c43)(C1)C2)OCC1CC1 [Example 19, Cyclopropylmethyl (3-(imidazo[4,5-d]pyrrolo[2,3-b]pyridin-1(6H)-yl)bicyclo[1.1.1]pentan-1-yl)carbamate]	51.3	578
CCN(C)S(=O)(=O)NC12CC(n3cnc4cnc5[nH]ccc5c43)(C1)C2 [Example 25, N-(3-(imidazo[4,5-d]pyrrolo[2,3-b]pyridin-1(6H)-yl)bicyclo[1.1.1]pentan-1-yl)-N′-methyl-N′-ethyl-1-sulfonamide]	26.1	–
COCCCS(=O)(=O)NC12CC(n3cnc4cnc5[nH]ccc5c43)(C1)C2 [Example 26, N-(3-(Imidazo[4,5-d]pyrrolo[2,3-b]pyridin-1(6H)-yl)bicyclo[1.1.1]pentan-1-yl)-3-methoxypropane-1-sulfonamide]	26.2	849
Cn1cc(S(=O)(=O)NC23CC(n4cnc5cnc6[nH]ccc6c54)(C2)C3)cn1 [Example 29, N-(3-(imidazo[4,5-d]pyrrolo[2,3-b]pyridin-1(6H)-yl)bicyclo[1.1.1]pentan-1-yl)-1-methyl-1H-pyrazole-4-sulfonamide]	90.5	992
CC(C)S(=O)(=O)NC12CC(n3cnc4cnc5[nH]ccc5c43)(C1)C2 [Example 30, N-(3-(imidazo[4,5-d]pyrrolo[2,3-b]pyridin-1(6H)-yl)bicyclo[1.1.1]pentan-1-yl)propane-2-sulfonamide]	25.5	226
N#CCS(=O)(=O)NC12CC(n3cnc4cnc5[nH]ccc5c43)(C1)C2 [Example 33, 1-Cyano-N-(3-(imidazo[4,5-d]pyrrolo[2,3-b]pyridin-1(6H)-yl)bicyclo[1.1.1]pentan-1-yl)methanesulfonamide]	14.4	146
CC(C)CNC(=O)NC12CC(n3cnc4cnc5[nH]ccc5c43)(C1)C2 [Example 36, 1-(3-(Imidazo[4,5-d]pyrrolo[2,3-b]pyridin-1(6H)-yl)bicyclo[1.1.1]pentan-1-yl)-3-isobutylurea]	49.5	–
COC1CN(C(=O)NC23CC(n4cnc5cnc6[nH]ccc6c54)(C2)C3)C1 [Example 38, N-(3-(Imidazo[4,5-d]pyrrolo[2,3-b]pyridin-1(6H)-yl)bicyclo[1.1.1]pentan-1-yl)-3-methoxyazetidine-1-carboxamide]	389	3300
N#CC1CCN(C(=O)NC23CC(n4cnc5cnc6[nH]ccc6c54)(C2)C3)C1 (centres unmarked) [Example 39, 3-Cyano-N-(3-(imidazo[4,5-d]pyrrolo[2,3-b]pyridin-1(6H)-yl)bicyclo[1.1.1]pentan-1-yl)pyrrolidine-1-carboxamide]	68.7	526
N#CC1CN(S(=O)(=O)C[C@H]2C[C@@H](n3cnc4cnc5[nH]ccc5c43)C2)C1 [Example 45, 1-(((Cis-3-(imidazo[4,5-d]pyrrolo[2,3-b]pyridin-1(6H)-yl)cyclobutyl)methyl)sulfonyl) azetidine-3-carbonitrile]	15.7	170
CCCS(=O)(=O)NC12CC(n3c([C@@H](C)O)nc4cnc5[nH]ccc5c43)(C1)C2 [Example 47, (R)—N-(3-(2-(1-hydroxyethyl)imidazo[4,5-d]pyrrolo[2,3-b]pyridin-1(6H)-yl)bicyclo[1.1.1]pentan-1-yl)propane-1-sulfonamide]	48.7	1110
CCCS(=O)(=O)NC12CC(n3c(C)nc4cnc5[nH]ccc5c43)(C1)C2 [Example 48, N-(3-(2-methylimidazo[4,5-d]pyrrolo[2,3-b]pyridin-1(6H)-yl)bicyclo[1.1.1]pentan-1-yl)propane-1-sulfonamide]	13	244

Further lines, results first:

IC50 [1] [nM]	IC50 [2] [nM]	SMILES
278	–	NC12CC(n3cnc4cnc5[nH]ccc5c43)(C1)C2 [Example 1j, 3-(Imidazo[4,5-d]pyrrolo[2,3-b]pyridin-1(6H)-yl)bicyclo[1.1.1]pentan-1-amine 2,2,2-trifluoroacetate]
2570	> 5000	N[C@H]1C[C@@H](n2cnc3cnc4[nH]ccc4c32)C1 [Example 2e, Cis-3-(imidazo[4,5-d]pyrrolo[2,3-b]pyridin-1(6H)-yl)cyclobutanamine 2,2,2-trifluoroacetate]
47.4	328	CC(C)CC(=O)NC12CC(n3cnc4cnc5[nH]ccc5c43)(C1)C2 [Example 8, N-(3-(Imidazo[4,5-d]pyrrolo[2,3-b]pyridin-1(6H)-yl)bicyclo[1.1.1]pentan-1-yl)-3-methylbutanamide]
58.7	441	CCCC(=O)NC12CC(n3cnc4cnc5[nH]ccc5c43)(C1)C2 [Example 9, N-(3-(imidazo[4,5-d]pyrrolo[2,3-b]pyridin-1(6H)-yl)bicyclo[1.1.1]pentan-1-yl)butyramide]
165	868	CC(C)COC(=O)NC12CC(n3cnc4cnc5[nH]ccc5c43)(C1)C2 [Example 10, Isobutyl (3-(imidazo[4,5-d]pyrrolo[2,3-b]pyridin-1(6H)-yl)bicyclo[1.1.1]pentan-1-yl)carbamate]
82.6	–	O=C(NC12CC(n3cnc4cnc5[nH]ccc5c43)(C1)C2)c1ccc(Cl)cc1 [Example 15, 4-Chloro-N-(3-(imidazo[4,5-d]pyrrolo[2,3-b]pyridin-1(6H)-yl)bicyclo[1.1.1]pentan-1-yl)benzamide]
64	–	CC(C)OC(=O)NC12CC(n3cnc4cnc5[nH]ccc5c43)(C1)C2 [Example 16, Isopropyl (3-(imidazo[4,5-d]pyrrolo[2,3-b]pyridin-1(6H)-yl)bicyclo[1.1.1]pentan-1-yl)carbamate]
14.2	326	COC1CN(S(=O)(=O)NC23CC(n4cnc5cnc6[nH]ccc6c54)(C2)C3)C1 [Example 21, N-(3-(imidazo[4,5-d]pyrrolo[2,3-b]pyridin-1(6H)-yl)bicyclo[1.1.1]pentan-1-yl)-3-methoxyazetidine-1-sulfonamide]
23	–	CN(C)S(=O)(=O)NC12CC(n3cnc4cnc5[nH]ccc5c43)(C1)C2 [Example 24, N-(3-(imidazo[4,5-d]pyrrolo[2,3-b]pyridin-1(6H)-yl)bicyclo[1.1.1]pentan-1-yl)-N′-dimethyl-1-sulfonamide]
20.2	291	CCS(=O)(=O)NC12CC(n3cnc4cnc5[nH]ccc5c43)(C1)C2 [Example 27, N-(3-(imidazo[4,5-d]pyrrolo[2,3-b]pyridin-1(6H)-yl)bicyclo[1.1.1]pentan-1-yl)ethanesulfonamide]
25.4	199	CCCNC(=O)NC12CC(n3cnc4cnc5[nH]ccc5c43)(C1)C2 [Example 34, 1-(3-(Imidazo[4,5-d]pyrrolo[2,3-b]pyridin-1(6H)-yl)bicyclo[1.1.1]pentan-1-yl)-3-propylurea]
235	–	O=C(NC1CC1)NC12CC(n3cnc4cnc5[nH]ccc5c43)(C1)C2 [Example 35, 1-Cyclopropyl-3-(3-(imidazo[4,5-d]pyrrolo[2,3-b]pyridin-1(6H)-yl)bicyclo[1.1.1]pentan-1-yl)urea]
101	678	O=C(NC12CC(n3cnc4cnc5[nH]ccc5c43)(C1)C2)N1CC(F)(F)C1 [Example 37, 3,3-Difluoro-N-(3-(imidazo[4,5-d]pyrrolo[2,3-b]pyridin-1(6H)-yl)bicyclo[1.1.1]pentan-1-yl)azetidine-1-carboxamide]
49.4	355	CC(C)(C#N)CNC(=O)NC12CC(n3cnc4cnc5[nH]ccc5c43)(C1)C2 [Example 40, 1-(2-Cyano-2-methylpropyl)-3-(3-(imidazo[4,5-d]pyrrolo[2,3-b]pyridin-1(6H)-yl)bicyclo[1.1.1]pentan-1-yl)urea]
142	965	CC(C)(C#N)COC(=O)NC12CC(n3cnc4cnc5[nH]ccc5c43)(C1)C2 [Example 42, 2-Cyano-2-methylpropyl (3-(imidazo[4,5-d]pyrrolo[2,3-b]pyridin-1(6H)-yl)bicyclo[1.1.1]pentan-1-yl)carbamate]
15.6	223	N#CCCNC(=O)NC12CC(n3cnc4cnc5[nH]ccc5c43)(C1)C2 [Example 43, 1-(2-Cyanoethyl)-3-(3-(imidazo[4,5-d]pyrrolo[2,3-b]pyridin-1(6H)-yl)bicyclo[1.1.1]pentan-1-yl)urea]
159	604	CNS(=O)(=O)C[C@H]1C[C@@H](n2cnc3cnc4[nH]ccc4c32)C1 [Example 44, 1-(Cis-3-(imidazo[4,5-d]pyrrolo[2,3-b]pyridin-1(6H)-yl)cyclobutyl)-N-methylmethanesulfonamide]
> 5000	> 5000	CCCS(=O)(=O)NC12CC(N(C)c3ncnc4[nH]ccc34)(C1)C2 [Example 49, N-(3-(Methyl(7H-pyrrolo[2,3-d]pyrimidin-4-yl)amino)bicyclo[1.1.1]pentan-1-yl)propane-1-sulfonamide]
